No end group written: not given here.

For this assay, the target named is T1, IL-6 (Homo sapiens, UniProt P05231).
T1 construct: purchased Genzyme Corp
T1 sequence (P05231 30-212): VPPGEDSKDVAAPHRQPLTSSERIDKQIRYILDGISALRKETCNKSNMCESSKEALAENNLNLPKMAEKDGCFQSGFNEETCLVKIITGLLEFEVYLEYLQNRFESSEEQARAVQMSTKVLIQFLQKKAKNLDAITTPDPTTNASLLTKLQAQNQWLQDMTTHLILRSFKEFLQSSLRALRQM
The assay is described as follows: Activity for inhibition of binding of IL-6 to receptor by peptide (IL-6 receptor expression cells, FITC labeled anti-IL-6 antibody). As to conditions: 5 μg of the peptide, 50 ng of IL-6, 10^5 IL-6 receptor expression cells, 4° C for one hour. The method, then: A human lymphocyte fraction was obtained from human peripheral blood with Ficoll-Paque (manufactured by Pharmacia-LKB). The fraction was reacted with a cultured supernatant of Epstein-Barr Virus producing cell strain B958 to transform the human lymphocytes to obtain IL-6 receptor expression cells.
1 mg of anti-human IL-6 antibody [Rabbit Anti-human Interleukin-6, manufactured by Genzyme Corp.] was dissolved in a 0.05M carbonate buffer solution (pH: 9.5) and to the resulting solution was added 10 μg of FITC [Fluorescein isothiocyanate, manufactured by Sigma Corp.]. The mixture was stirred at 4° C. overnight. The resulting solution was passed through PD-10 column (manufactured by Pharmacia-LKB) to obtain FITC labeled anti-IL-6 antibody as a firstly eluted fraction.
10^5 IL-6 receptor expression cells were suspended in 0.5 % BSA (bovine serum albumin, manufactured by Sigma Corp.)-PBS (a phosphate buffer solution containing 0.15 M sodium chloride, pH 7.4) and to the resulting suspension were added 50 ng of IL-6 (Human recombinant interleukin-6, manufactured by Genzyme Corp.) and 5 μg of the peptide obtained in any one of Examples 1 to 96. The suspension was allowed to stand at 4° C for one hour. Then, after washing the cells centrifugally with 0.5% BSA-PBS three times (1200 rpm, 5 min.), 1 μg of FITC labeled anti-IL-6 antibody was added and the mixture was allowed to stand at 4° C. for 30 minutes. After washing with 0.5% BSA-PBS three times, the intensity of fluorescence of the cells was determined. The binding inhibition activity of the peptide of each Example was evaluated, by taking the value obtained without addition of the peptide as a control and taking the value- obtained without addition of IL-6 as a blank, according to the following formula: [formula]
As for “DDDDDQDPHSWNSSFYRLRFELRYRAERSKAAG-NH2 [Example 88]”, the “Binding inhibition activity (%)” value is listed as 66%.
As for “DDDDDRKFQNSPAEDFQEPCQYSQESAAG-NH2 [Example 24]”, the “Binding inhibition activity (%)” value came to 55%.
To “DDDDDTSLPGDSVTLTCPGVEPEDAAG-NH2 [Example 8]” belongs 37%; to “DDDDDWNSSFYRLRFELRYRAERSKAAG-NH2 [Example 40]”, 37%.
The value for “DDDDDWQDPHSWNSSFYRLRFELRYRAERSKAAG-NH2 [Example 96]” was 52%; that for DPHSWNSSFYRLRFELRYRAERSK [Example 77] was 58%.
As for DPHSWNSSFYRLRFELRYRAERSKK [Example 73], the “Binding inhibition activity (%)” value is on record as 71%.
Consider “EEEDPHSWNSSFYRLRFELRYRAERSKKG-NH2 [Example 79]”, for which the “Binding inhibition activity (%)” value was found to be 62%.
To “EEEGTVHLLVDVPPEEPQLSCFRKKG-NH2 [Example 15]” belongs 30%; to “EEEHSWNSSFYRLRFELRYRAERSKKG-NH2 [Example 63]”, 51%; to EEENPRWLSVTWQDPHSKG-NH2 [Example 55], 28%.
The value for “EEEPHSWNSSFYRLRFELRYRAERSKKG-NH2 [Example 71]” was 60%; that for “EEEQDPHSWNSSFYRLRFELRYRAERSKKG-NH2 [Example 87]” was 72%.
The value for “EEERKFQNSPAEDFQEPCQYSQESKG-NH2 [Example 23]” was 58%; that for “EEETSLPGDSVTLTCPGVEPEDKG-NH2 [Example 7]” was 38%.
For the substance “EEEWNSSFYRLRFELRYRAERSKKG-NH2 [Example 39]”, the “Binding inhibition activity (%)” value was 58%.
The value for “EEEWQDPHSWNSSFYRLRFELRYRAERSKKG-NH2 [Example 95]” was 65%.
On to GTVHLLVDVPPEEPQLSCFRK [Example 13], for which the “Binding inhibition activity (%)” value stood at 25%.
To GTVHLLVDVPPEEPQLSCFRKK [Example 9] belongs 30%.
As for “H-Thr-Ser-Leu-Pro-Gly-Ser-Val-Thr-Leu-Thr-Cys-Pro-Gly-Val-Glu-Pro-Glu-Asp- Lys-OH (H-TSLPGSVTLTCPGVEPEDK-OH) [Example 1]”, the “Binding inhibition activity (%)” value is reported as 38%.
HSWNSSFYRLRFELRYRAERSK [Example 61]: the “Binding inhibition activity (%)” value was determined as 45%.
For HSWNSSFYRLRFELRYRAERSKK [Example 57], the “Binding inhibition activity (%)” value was 63%.
With “KDPHSWNSSFYRLRFELRYRAERSKD-NH2 [Example 78]”, the “Binding inhibition activity (%)” value amounted to 60%.
Regarding “KGTVHLLVDVPPEEPQLSCFRKD-NH2 [Example 14]”, the “Binding inhibition activity (%)” value worked out at 32%.
To “KHSWNSSFYRLRFELRYRAERSKD-NH2 [Example 62]” belongs 50%; to KKDPHSWNSSFYRLRFELRYRAERSK [Example 74], 70%; to KKGTVHLLVDVPPEEPQLSCFRK [Example 10], 28%.
For the substance KKHSWNSSFYRLRFELRYRAERSK [Example 58], the “Binding inhibition activity (%)” value is 60%.
On to KKNPRWLSVTWQDPHS [Example 50], for which the “Binding inhibition activity (%)” value came out at 25%.
Turning to KKPHSWNSSFYRLRFELRYRAERSK [Example 66], the “Binding inhibition activity (%)” value is on record as 65%.
To KKQALTTNKDDDNILFRDSA [Example 26] belongs 42%; to “KKQDPHSWNSSFYRLRFELRYRAERSK [Example 82]”, 70%.
The value for KKRKFQNSPAEDFQEPCQYSQES [Example 18] was 55%; that for KKTSLPGDSVTLTCPGVEPED [Example 2] was 35%.
For the substance KKWNSSFYRLRFELRYRAERSK [Example 34], the “Binding inhibition activity (%)” value amounted to 55%.
To “KKWQDPHSWNSSFYRLRFELRYRAERSK [Example 90]” belongs 71%.
To KNPRWLSVTWQDPHSD-NH2 [Example 54] belongs 28%; to “KPHSWNSSFYRLRFELRYRAERSKD-NH2 [Example 70]”, 59%; to KQALTTNKDDDNILFRDSAD-NH2 [Example 30], 46%.
To “KQDPHSWNSSFYRLRFELRYRAERSKD-NH2 [Example 86]” belongs 58%; to “KRKFQNSPAEDFQEPCQYSQESD-NH2 [Example 22]”, 58%.
Turning to KTSLPGDSVTLTCPGVEPEDD-NH2 [Example 6], the “Binding inhibition activity (%)” value worked out at 36%.
The value for KWNSSFYRLRFELRYRAERSKD-NH2 [Example 38] was 56%; that for “KWQDPHSWNSSFYRLRFELRYRAERSKD-NH2 [Example 94]” was 63%.
NPRWLSVTWQDPHS [Example 53]: the “Binding inhibition activity (%)” value came out at 22%.
To NPRWLSVTWQDPHSK [Example 49] belongs 30%; to PHSWNSSFYRLRFELRYRAERSK [Example 69], 54%.
In the case of PHSWNSSFYRLRFELRYRAERSKK [Example 65], the “Binding inhibition activity (%)” value is recorded as 68%.
The value for QALTTNKDDDNILFRDSA [Example 29] was 41%.
For QALTTNKDDDNILFRDSAK [Example 25], the “Binding inhibition activity (%)” value turned out to be 45%.
To QDPHSWNSSFYRLRFELRYRAERSK [Example 85] belongs 60%; to QDPHSWNSSFYRLRFELRYRAERSKK [Example 81], 76%; to RKFQNSPAEDFQEPCQYSQES [Example 21], 52%.
To RKFQNSPAEDFQEPCQYSQESK [Example 17] belongs 60%; to TSLPGDSVTLTCPGVEPED [Example 5], 28%.
The value for WNSSFYRLRFELRYRAERSK [Example 37] was 48%; that for WNSSFYRLRFELRYRAERSKK [Example 33] was 58%; that for WQDPHSWNSSFYRLRFELRYRAERSK [Example 93] was 59%.
Turning to “WQDPHSWNSSFYRLRFELRYRAERSKK [Example 89]”, the “Binding inhibition activity (%)” value is reported as 68%.
